Holding throughout (format): cell-based, human
In assay [1] the test system is BRG1 mutant and BRG1 wild-type cell lines. The assay is described as follows: Anaphase bridge analysis. The procedure: To quantify anaphase bridges, cells were grown on 4-well cultures slides (Lab Tek II). Adherent cells were fixed with 4% paraformaldehyde for 20 min, washed and stained with Vectashield™ with 4′,6-diamidino-2-phenylindole (DAPI; Vector Labs). Images were taken of each anaphase structure, and the number of anaphases with bridges over the total number of anaphases (between 11 and 34 total anaphases per well of a 4-well chamber slide) was recorded for each of three or more independent biological replicate experiments.

The test system of assay [2] is H441. Put plainly: Growth rate over 10 day time-course (Cell Titer Glo). The settings on record: H441, 1 μM DZNep, 10 day time-course. The procedure:
(§1) FIG. 2A depicts a Western Blot for EZH2 and H3K27me3 performed on whole cell extracts 4 days after indicated treatments, β-actin shown as a loading control. FIG. 2B depicts a graph of the growth rates of matched shGFP and shGFP cells treated with 1 μM DZNep and assayed by Cell Titer Glo at days 3, 5, 7, and 10 post plating at equal densities. Average luminescence ±s.e.m. for 3 replicate wells is shown based on when each shGFP cell line reached logarithmic growth, * indicates p<0.03. FIG. 2C depicts a graph of the response to Etoposide. Cell lines were plated at equal densities and treated a range of etoposide doses with or without 1 μM DZNep. On the 4th day, cell viability was measured using Cell Titer Glo and the percent survival at each dose of etoposide was calculated. Dose response curves were generated for the no DZNep and DZNep treated cells using the GraphPad prism software and IC50s were extrapolated. The fold change±s.e.m. of etoposide IC50 in response to DZNep is plotted, n=4 biological replicates, * indicates p<0.05. Cell lines with mutations in Brg1, EGFR and B-Raf are indicated.

For assay [3], the system named is Calu6. The assay is described as above. The settings on record: Calu6, 1 μM DZNep, 10 day time-course. How it is done: as §1
Assay [4] concerns HCC15. The description is as above. Particulars: HCC15, 1 μM DZNep, 10 day time-course. The procedure: as §1
Assay [5] relates to H157. The assay is described as above. Particulars: H157, 1 μM DZNep, 10 day time-course. The procedure: as §1

`Nc1nccc2c1ncn2[C@@H]1C=C(CO)[C@@H](O)[C@H]1O` [DZNep, 3-Deazaneplanocin A]: the “anaphase bridging when challenged with DZNep” value in assay [1] (BRG1 mutant cell lines) is on record as “increased anaphase bridging”; in assay [1] (BRG1 wild-type lines), “significant decrease”. Further, in assay [1] (HCC15 control line), the “anaphase bridging (TopoII dysfunction) in response to DZNep” value is reported as “increase in TopoII dysfunction”. Besides, the decrease in proliferation in assay [2] is 2.1 fold; in assay [3], 2.1 fold; in assay [4] it was 3.2 fold; in assay [5], 2.1 fold.

These data come from patent US9895390B2, “Methods and assays for combination treatment of cancer” (CHILDREN'S MEDICAL CENTER CORPORATION, priority 2012, dated 2018).
